Experimental data as given in ChEMBL document CHEMBL2448688, “Selection and optimization of hits from a high-throughput phenotypic screen against Trypanosoma cruzi. Exported from HEOS 25-Oct-2013. See also related datasets CHEMBL3137440 and CHEMBL3137386”.
“And” between values parts separate entries of the source, which are not always exact repeats. Identical values can stand only once.

Tests used:
Trypanosoma cruzi [1] = experiment: (§1) DNDI: Chagas in Vitro; format: functional, organism-based, Tulahuen C4 (LacZ)
in vitro [2] = details: rat, microsomes
[3] = DNDI: Lipophilicity (gLogD) at pH 3; details: buffer, pH 3, logD
[4] = DNDI: Permeability in CACO-2 cells at pH 7.4 (A to B); format: ADME, cell-based; details: human, Caco-2, pH 7.4
in vitro [5] = details: rat, hepatocytes
in vitro [6] = details: mouse, microsomes
Trypanosoma cruzi [7] = experiment: as §1; format: functional, Tulahuen C4 (LacZ)
Cytochrome P450 1A2 = target: T1, Cytochrome P450 1A2 (Homo sapiens, UniProt P05177)
T1 sequence (P05177 whole entry): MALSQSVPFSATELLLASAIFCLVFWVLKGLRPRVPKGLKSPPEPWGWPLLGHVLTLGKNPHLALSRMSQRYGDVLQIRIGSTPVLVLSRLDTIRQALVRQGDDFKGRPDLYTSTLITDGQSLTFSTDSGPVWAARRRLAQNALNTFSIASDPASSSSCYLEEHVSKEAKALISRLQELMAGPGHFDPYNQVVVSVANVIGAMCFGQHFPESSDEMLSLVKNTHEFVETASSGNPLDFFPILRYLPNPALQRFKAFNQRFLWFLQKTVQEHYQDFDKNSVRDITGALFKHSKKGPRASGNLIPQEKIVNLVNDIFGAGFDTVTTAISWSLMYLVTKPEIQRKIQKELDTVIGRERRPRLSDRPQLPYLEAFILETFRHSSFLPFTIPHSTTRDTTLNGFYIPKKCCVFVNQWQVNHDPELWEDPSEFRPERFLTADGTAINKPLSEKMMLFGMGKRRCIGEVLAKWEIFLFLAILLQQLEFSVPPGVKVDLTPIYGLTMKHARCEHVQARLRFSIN

Trypanosoma cruzi [8] = experiment: DNDI: Chagas in vivo at 20 mg/kg, 20 days 2x; format: functional, Tulahuen Swiss po
Cytochrome P450 2C9 = Cytochrome P450 2C9 (Homo sapiens, UniProt P11712)
Sequence of Cytochrome P450 2C9 (P11712 whole entry): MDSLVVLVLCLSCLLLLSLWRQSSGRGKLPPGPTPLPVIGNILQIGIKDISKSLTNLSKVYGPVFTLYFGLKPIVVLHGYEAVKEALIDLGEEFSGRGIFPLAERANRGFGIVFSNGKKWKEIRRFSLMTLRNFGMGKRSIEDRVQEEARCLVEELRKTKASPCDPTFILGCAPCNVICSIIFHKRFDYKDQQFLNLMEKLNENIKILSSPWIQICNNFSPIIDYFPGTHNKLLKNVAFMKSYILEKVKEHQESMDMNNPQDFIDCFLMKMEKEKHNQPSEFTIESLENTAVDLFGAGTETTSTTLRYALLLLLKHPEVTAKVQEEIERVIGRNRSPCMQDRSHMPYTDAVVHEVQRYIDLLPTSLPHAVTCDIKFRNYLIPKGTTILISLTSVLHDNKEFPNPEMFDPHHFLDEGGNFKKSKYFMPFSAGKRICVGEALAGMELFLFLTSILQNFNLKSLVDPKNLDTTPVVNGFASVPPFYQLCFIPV

[9] = DNDI: Solubility in 0.01M HCl at pH 2 determined by nephelometry; details: 0.01M HCl, pH 2, Kinetic
in vitro [10] = details: mouse, microsomes; remark: listed apart in the source
Cytochrome P450 2D6 = Cytochrome P450 2D6 (Homo sapiens, UniProt P10635)
Sequence of Cytochrome P450 2D6 (P10635 whole entry): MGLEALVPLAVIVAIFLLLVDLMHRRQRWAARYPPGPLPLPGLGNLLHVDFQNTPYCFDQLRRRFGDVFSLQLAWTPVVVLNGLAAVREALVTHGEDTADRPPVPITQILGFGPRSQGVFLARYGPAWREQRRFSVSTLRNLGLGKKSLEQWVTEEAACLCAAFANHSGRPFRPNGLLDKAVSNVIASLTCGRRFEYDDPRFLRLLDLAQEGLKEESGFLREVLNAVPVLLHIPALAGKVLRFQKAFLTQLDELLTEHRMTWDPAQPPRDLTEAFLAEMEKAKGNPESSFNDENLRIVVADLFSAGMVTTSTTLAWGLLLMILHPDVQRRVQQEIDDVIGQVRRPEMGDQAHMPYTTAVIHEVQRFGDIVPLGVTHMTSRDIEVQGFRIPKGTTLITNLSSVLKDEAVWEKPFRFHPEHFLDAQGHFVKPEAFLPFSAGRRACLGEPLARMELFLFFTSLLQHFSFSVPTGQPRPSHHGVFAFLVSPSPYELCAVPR

in vitro [11] = details: rat, microsomes; remark: listed apart in the source
in vitro [12] = details: human, microsomes, t (1 / 2)
[13] = DNDI: Metabolism; format: ADME, Microsome; details: rat, microsomes
[14] = DNDI: Protein binding in mouse plasma
in vitro [15] = details: human, microsomes
[16] = test system: Trypanosoma brucei rhodesiense; experiment: DNDI: HAT in Vitro; format: functional, organism-based, ATCC 30027; details: Trypanosoma brucei, ATCC 30027
[17] = DNDI: Cytotoxicity in vitro, against rat skeletal myoblast (L-6) cells; details: L-6 cells (skeletal myoblasts), IC50
[18] = DNDI: Protein binding in rat plasma; format: ADME, cell-free; details: read-out: % bound (converted)
Cytochrome P450 2C19 = Cytochrome P450 2C19 (Homo sapiens, UniProt P33261)
Sequence of Cytochrome P450 2C19 (P33261 whole entry): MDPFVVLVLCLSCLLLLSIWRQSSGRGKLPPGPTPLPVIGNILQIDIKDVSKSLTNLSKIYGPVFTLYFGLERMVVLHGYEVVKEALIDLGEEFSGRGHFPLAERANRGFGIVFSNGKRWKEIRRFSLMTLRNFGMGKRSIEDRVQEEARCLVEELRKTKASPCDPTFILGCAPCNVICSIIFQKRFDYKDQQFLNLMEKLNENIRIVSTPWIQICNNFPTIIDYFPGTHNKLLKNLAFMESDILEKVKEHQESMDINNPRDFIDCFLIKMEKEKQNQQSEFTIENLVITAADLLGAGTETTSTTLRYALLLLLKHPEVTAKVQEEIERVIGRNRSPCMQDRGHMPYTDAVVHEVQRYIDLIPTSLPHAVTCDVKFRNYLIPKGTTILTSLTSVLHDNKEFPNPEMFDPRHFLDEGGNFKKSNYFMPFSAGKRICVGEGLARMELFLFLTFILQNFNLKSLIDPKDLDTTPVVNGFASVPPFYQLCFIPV

[19] = DNDI: Lipophilicity (gLogD) at pH 7.4; details: buffer, pH 7.4, logD
Cytochrome P450 3A4 = Cytochrome P450 3A4 (Homo sapiens, UniProt P08684); experiment: DNDI: Human CYP3A4 inhibition determined using 6b-hydroxylation of testosterone
Sequence of Cytochrome P450 3A4 (P08684 whole entry): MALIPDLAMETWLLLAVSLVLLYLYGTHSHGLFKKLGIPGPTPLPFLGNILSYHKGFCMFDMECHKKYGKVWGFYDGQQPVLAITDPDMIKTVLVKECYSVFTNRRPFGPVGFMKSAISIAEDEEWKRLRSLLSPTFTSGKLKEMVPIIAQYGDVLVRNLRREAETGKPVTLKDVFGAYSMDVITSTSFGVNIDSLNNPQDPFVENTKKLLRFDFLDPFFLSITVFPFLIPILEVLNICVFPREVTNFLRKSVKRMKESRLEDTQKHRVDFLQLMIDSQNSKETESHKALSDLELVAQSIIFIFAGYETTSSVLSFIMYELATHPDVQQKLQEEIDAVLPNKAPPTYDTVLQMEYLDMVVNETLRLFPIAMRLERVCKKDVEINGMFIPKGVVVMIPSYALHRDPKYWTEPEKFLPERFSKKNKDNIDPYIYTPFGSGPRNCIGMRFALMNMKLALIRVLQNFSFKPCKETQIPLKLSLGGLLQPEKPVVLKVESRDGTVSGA

in vitro [20] = details: rat, microsomes; remark: listed apart in the source
in vitro [21] = details: human, microsomes, EH
in vitro [22] = details: mouse, microsomes; remark: listed apart in the source
in vitro [23] = details: rat, hepatocytes; remark: listed apart in the source
Trypanosoma cruzi [24] = experiment: DNDI: Chagas in vivo at 50 mg/kg, 20 days 1x; format: functional, Tulahuen Swiss po
Trypanosoma cruzi [25] = experiment: DNDI: Chagas in vivo at 20 mg/kg, 20 days 1x; format: functional, Tulahuen Swiss po
[26] = Trypanosoma cruzi, Tulahuen C4 (LacZ)

Compound	IC50 (Trypanosoma cruzi [1])	IC50 (Trypanosoma cruzi [1]; [26]) [nM]	half-life (in vitro [2]) [h]	CLhep predicted (in vitro [5]) [mL/min/kg]	microsomal CLint (in vitro [6]) [µL/min/mg]	IC90 (Trypanosoma cruzi [7])	PCR cure rate (Trypanosoma cruzi [8]) [%]	Parasitemia clearance after immunosuppression (Trypanosoma cruzi [8]) [%]	Parasitemia clearance after treatment (Trypanosoma cruzi [8]) [%]	half-life (in vitro [10]) [h]	microsomal CLint (in vitro [11]) [µL/min/mg]	half-life (in vitro [12]) [h]	fraction unbound [14]	microsomal CLint (in vitro [15]) [µL/min/mg]	IC50 [17] [nM]	fraction unbound [18]	further results
N#Cc1ccc(-n2ccnc2)c(NC(=O)c2cnc(-c3ccccc3)s2)c1	11.5 nM and 6.8 nM and 7 nM	6	1.22	17.2	31	20.5 nM and 47 nM and > 100 nM	0	0	100	0.933	24	2.53	0.064	11	> 100000	0.043	chromatographic logD [3]: 2.1; Papp A→B [4]: 82 ×10⁻⁶ cm/s; IC50 (Cytochrome P450 1A2): > 20000 nM; IC50 (Cytochrome P450 2C9): > 20000 nM; solubility kinetic [9]: > 100 µg/mL; IC50 (Cytochrome P450 2D6): 2700 nM; CLblood [13]: 25 mL/min/kg; IC50 [16]: > 10000 nM; IC50 (Cytochrome P450 2C19): 15900 nM; chromatographic logD [19]: 2.8
CO/N=C(\C)c1ccc(-n2ccnc2)c(NC(=O)c2cnn(-c3ccccn3)c2)c1	6 nM	6.7	1.07	34.3	83	14 nM	0	0	80	0.35	27	1.8	0.022	16	> 100000	0.008	IC50 (Cytochrome P450 3A4): 1400 nM; hepatic extraction ratio (in vitro [20]): 0.47; hepatic extraction ratio (in vitro [21]): 0.38; IC90 (Trypanosoma cruzi [7]; [26]): 16 nM; hepatic extraction ratio (in vitro [22]): 0.78; hepatic extraction ratio (in vitro [23]): 0.51; PCR cure rate (Trypanosoma cruzi [24]): 0%; Parasitemia clearance after immunosuppression (Trypanosoma cruzi [24]): 0%; Parasitemia clearance after treatment (Trypanosoma cruzi [24]): 20%; PCR cure rate (Trypanosoma cruzi [25]): 0%; Parasitemia clearance after immunosuppression (Trypanosoma cruzi [25]): 0%; Parasitemia clearance after treatment (Trypanosoma cruzi [25]): 0%
